# According to ChEMBL document CHEMBL1201862, “PubChem BioAssay data set” (2004):
#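 Interpolation was linear, between the two tested concentrations surrounding the appropriate level; five concentrations were tested over 48 hours in 96-well plates. GI50: concentration for 50% inhibition of growth.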 Active and inactive are the calls of the source. Rule as the data show it: active = GI50 up to about 1.1 µM and inactive = higher.
# Tests used:
# Assay in all cases: NCI tumour cell line growth inhibition, 48 h
# HCT-116 = system: HCT-116
# T47D = system: T47D
# HOP-62 = system: HOP-62
# EKVX = system: EKVX
# LOX IMVI = system: LOX IMVI
# Hs-578T = system: Hs-578T
# ACHN = system: ACHN
# PC-3 = system: PC-3
# UACC-62 = system: UACC-62
# IGROV-1 = system: IGROV-1
# RXF 393 = system: RXF 393
# 786-0 = system: 786-0
# TK-10 = system: TK-10
# SR = system: SR
# CAKI-1 = system: CAKI-1
# HT-29 = system: HT-29
# NCI-H23 = system: NCI-H23
# Malme-3M = system: Malme-3M
# OVCAR-3 = system: OVCAR-3
# CCRF-CEM = system: CCRF-CEM
# MDA-MB-231 = system: MDA-MB-231
# MCF7 = system: MCF7
# HL-60 = system: HL-60
# SF-268 = system: SF-268
# SF-295 = system: SF-295
# KM12 = system: KM12
# NCI/ADR-RES = system: NCI/ADR-RES
# A549 = system: A549
# HCC 2998 = system: HCC 2998
# SK-MEL-5 = system: SK-MEL-5
# K562 = system: K562
# SNB-75 = system: SNB-75
# SK-MEL-28 = system: SK-MEL-28
# NCI-H522 = system: NCI-H522
# NCI-H460 = system: NCI-H460
# DU-145 = system: DU-145
# COLO 205 = system: COLO 205
# NCI-H226 = system: NCI-H226
# MDA-N = system: MDA-N
# OVCAR-4 = system: OVCAR-4
# U-251 = system: U-251
# A498 = system: A498
# SK-OV-3 = system: SK-OV-3
# SNB-19 = system: SNB-19
# MDA-MB-435 = system: MDA-MB-435
# SN12C = system: SN12C
# BT-549 = system: BT-549
# MOLT-4 = system: MOLT-4
# OVCAR-5 = system: OVCAR-5
# UACC-257 = system: UACC-257
# HCT-15 = system: HCT-15
# UO-31 = system: UO-31
# M14 = system: M14
# HOP-92 = system: HOP-92
# OVCAR-8 = system: OVCAR-8
# SF-539 = system: SF-539
# SK-MEL-2 = system: SK-MEL-2
# SW-620 = system: SW-620
# RPMI-8226 = system: RPMI-8226
smiles,measurement,setting,value
O=C1C2Cc3c(n(C(=O)c4ccccc4)c4ccccc34)CC2C(=O)N1c1ccc(Nc2ccc(N3C(=O)C4Cc5c(n(C(=O)c6ccccc6)c6ccccc56)CC4C3=O)cc2)cc1 (configuration not stated),GI50,HCT-116,> 100 µM (inactive)
same,GI50,T47D,> 100 µM (inactive)
same,GI50,HOP-62,> 100 µM (inactive)
same,GI50,EKVX,> 100 µM (inactive)
same,GI50,LOX IMVI,> 100 µM (inactive)
same,GI50,Hs-578T,> 100 µM (inactive)
same,GI50,ACHN,> 100 µM (inactive)
same,GI50,PC-3,> 100 µM (inactive)
same,GI50,UACC-62,61 µM (inactive)
same,GI50,IGROV-1,> 100 µM (inactive)
same,GI50,RXF 393,> 100 µM (inactive)
same,GI50,786-0,> 100 µM (inactive)
same,GI50,TK-10,> 100 µM (inactive)
same,GI50,SR,44.4 µM (inactive)
same,GI50,CAKI-1,> 100 µM (inactive)
same,GI50,HT-29,> 100 µM (inactive)
same,GI50,NCI-H23,> 100 µM (inactive)
same,GI50,Malme-3M,> 100 µM (inactive)
same,GI50,OVCAR-3,> 100 µM (inactive)
same,GI50,CCRF-CEM,40.4 µM (inactive)
same,GI50,MDA-MB-231,24.3 µM (inactive)
same,GI50,MCF7,> 100 µM (inactive)
same,GI50,HL-60,8.85 µM (inactive)
same,GI50,SF-268,> 100 µM (inactive)
same,GI50,SF-295,> 100 µM (inactive)
same,GI50,KM12,> 100 µM (inactive)
same,GI50,NCI/ADR-RES,> 100 µM (inactive)
same,GI50,A549,> 100 µM (inactive)
same,GI50,HCC 2998,> 100 µM (inactive)
same,GI50,SK-MEL-5,58.1 µM (inactive)
same,GI50,K562,> 100 µM (inactive)
same,GI50,SNB-75,> 100 µM (inactive)
same,GI50,SK-MEL-28,> 100 µM (inactive)
same,GI50,NCI-H522,> 100 µM (inactive)
same,GI50,NCI-H460,> 100 µM (inactive)
same,GI50,DU-145,> 100 µM (inactive)
same,GI50,COLO 205,> 100 µM (inactive)
same,GI50,NCI-H226,> 100 µM (inactive)
same,GI50,MDA-N,> 100 µM (inactive)
same,GI50,OVCAR-4,> 100 µM (inactive)
same,GI50,U-251,> 100 µM (inactive)
same,GI50,A498,> 100 µM (inactive)
same,GI50,SK-OV-3,> 100 µM (inactive)
same,GI50,SNB-19,> 100 µM (inactive)
same,GI50,MDA-MB-435,> 100 µM (inactive)
same,GI50,SN12C,> 100 µM (inactive)
same,GI50,BT-549,> 100 µM (inactive)
same,GI50,MOLT-4,> 100 µM (inactive)
same,GI50,OVCAR-5,> 100 µM (inactive)
same,GI50,UACC-257,> 100 µM (inactive)
same,GI50,HCT-15,> 100 µM
same,GI50,UO-31,> 100 µM (inactive)
same,GI50,M14,30.9 µM (inactive)
same,GI50,HOP-92,46 µM (inactive)
same,GI50,OVCAR-8,> 100 µM (inactive)
Cc1cc(=O)oc2cc(OC(=O)N(C)C)c(Cl)cc12,GI50,HCT-116,> 100 µM (inactive)
same,GI50,T47D,85.9 µM (inactive)
same,GI50,HOP-62,25.1 µM (inactive)
same,GI50,EKVX,> 100 µM (inactive)
same,GI50,LOX IMVI,85.5 µM (inactive)
same,GI50,Hs-578T,> 100 µM (inactive)
same,GI50,ACHN,> 100 µM (inactive)
same,GI50,PC-3,> 100 µM (inactive)
same,GI50,UACC-62,21.6 µM (inactive)
same,GI50,IGROV-1,> 100 µM (inactive)
same,GI50,RXF 393,2 µM (inactive)
same,GI50,786-0,87.5 µM (inactive)
same,GI50,TK-10,> 100 µM (inactive)
same,GI50,SR,> 100 µM (inactive)
same,GI50,CAKI-1,> 100 µM (inactive)
same,GI50,HT-29,> 100 µM (inactive)
same,GI50,SF-539,55.3 µM (inactive)
same,GI50,NCI-H23,> 100 µM (inactive)
same,GI50,Malme-3M,84.3 µM (inactive)
same,GI50,OVCAR-3,> 100 µM (inactive)
same,GI50,CCRF-CEM,> 100 µM (inactive)
same,GI50,MDA-MB-231,> 100 µM (inactive)
same,GI50,MCF7,> 100 µM (inactive)
same,GI50,HL-60,54 µM (inactive)
same,GI50,SF-268,86.5 µM (inactive)
same,GI50,SF-295,> 10 µM (inactive)
same,GI50,SK-MEL-2,82.6 µM (inactive)
same,GI50,KM12,> 100 µM (inactive)
same,GI50,NCI/ADR-RES,> 100 µM (inactive)
same,GI50,A549,> 100 µM (inactive)
same,GI50,HCC 2998,> 100 µM (inactive)
same,GI50,SK-MEL-5,76 µM (inactive)
same,GI50,K562,> 100 µM (inactive)
same,GI50,SK-MEL-28,> 100 µM (inactive)
same,GI50,NCI-H522,57.7 µM (inactive)
same,GI50,NCI-H460,> 100 µM (inactive)
same,GI50,DU-145,> 100 µM (inactive)
same,GI50,COLO 205,95.9 µM (inactive)
same,GI50,NCI-H226,29.3 µM (inactive)
same,GI50,MDA-N,> 100 µM (inactive)
same,GI50,OVCAR-4,> 100 µM (inactive)
same,GI50,U-251,53 µM (inactive)
same,GI50,A498,> 100 µM (inactive)
same,GI50,SNB-19,71.4 µM (inactive)
same,GI50,SW-620,> 100 µM (inactive)
same,GI50,MDA-MB-435,65 µM (inactive)
same,GI50,SN12C,> 100 µM (inactive)
same,GI50,BT-549,> 100 µM (inactive)
same,GI50,MOLT-4,> 100 µM (inactive)
same,GI50,OVCAR-5,> 100 µM (inactive)
same,GI50,UACC-257,80.5 µM (inactive)
same,GI50,RPMI-8226,> 100 µM (inactive)
same,GI50,HCT-15,> 100 µM
same,GI50,UO-31,> 100 µM (inactive)
same,GI50,M14,83.9 µM (inactive)
same,GI50,HOP-92,82 µM (inactive)
same,GI50,OVCAR-8,> 100 µM (inactive)
